Data published in patent US5833994A, “Use of the AH receptor and AH receptor ligands to treat or prevent cytopathicity of viral infection” (Paracelsian, Inc., priority 1997, dated 1998).
Entries after “also recorded” stand apart in the source; their conditions may differ. Read-outs that look alike come from different tables or passages of the source. Blank lines part the entries; values can stand above or below the compound they belong to.

What was measured:
[1] = tested on: HIV envelope gp120/41-induced syncytia formation in CD4+T cell lines (HIVenv 2-8 co-culture); test: Inhibition of HIVenv 2-8-induced syncytia formation / cell death (HIV-1 co-culture assay); format: cell-based; conditions: for Estimated IC50 (Syncitia Quantification), inhibition of HIV-induced cytopathicity: Table 1
Protocol: Sourcing of Ah Receptor Ligands: The Ah receptor ligands 2,3,7,8-Tetrachlorodibenzo-p-dioxin, 3,3',4,4',5-Pentachlorobiphenyl, 3,3',4,'4-Tetrachlorobiphenyl, and 2-Monochlorodibenzo-p-dioxin compounds were purchased from Accustandard (Cambridge, Mass.). α-naphthoflavone was purchased from Sigma (St. Louis, Mo.). Stock solutions of each compound were prepared by dissolution in DMSO at a 1000X concentration, i.e. the highest concentration tested was diluted by 1000-fold.
Bioassay Procedure: The cell lines utilized in the assay protocol include the following: HIVenv 2-2 (non-cytopathic), HIVenv 2-8 (cytopathic), Jurkat CD4+T cell line (clone E6-1), and SupT1. Cell lines were cultured in RPMI medium (Gibco, Grand Island, N.Y.) supplemented with L-glutamine (Sigma, St. Louis, Mo.) and 10% FBS-HI (Intergen). The Jurkat CD4+T cell line was obtained from American Type Culture Collection (Bethesda, Md.). All other cell lines were obtained from the National Institutes of Health. The HIVenv 2-2 or HIVenv 2-8 cells were plated with both CD4+T cell lines (1×10^3 cells per cell line in 16 μL of media.) in a 96-well tissue culture plate containing 50 μL of media with compound to be tested yielding a final volume of approximately 100 μL. The plates were then gently shaken to ensure adequate mixing of the assay components. Cells were then co-cultured at 5% CO2, 37C., and 95% humidity for 24 to 48 hours. The time points were chosen for the convenience, cytopathic changes become evident in the cell cultures used within a 2 to 4 hour period, becoming more and more prominent with time.
Data Reduction for this ELISA: HIVenv 2-2 co-culture ELISA values are used as the background for HIVenv 2-8 co-culture values. Dose responses are then plotted with dose along the x-axis and the background corrected optical density values on the y-axis.
Positive and Negative Controls: The use of the HIVenv 2-2 cell line serves as a negative control for induction of cytopathicity.
(§1) Interpretation of the Test: A positive response was defined as a dose-related decrease in syncytia formation in excess of 50% compared to HIVenv 2-8 co-cultures alone. Calculation of median effective doses was estimated by visual observation and by quantification of syncitia in 10X power microscope fields.
The Materials and Methods used in the testing of the various dibenzofuran compounds were the same as those used in Example 1 above. This includes the use of the same controls, cell lines, and assay procedures.
as §1, with “fields. Another procedure which provides data similar to the Bioassay procedure just described allows for quantification of changes in the co-culture cells through an ELISA method, not as reliant on visual observation. […]” for “fields.”

Ah receptor [2] = target: T1, Ah receptor (Cavia porcellus, UniProt Q6J287); test: Inhibition of Ah receptor transformation, antagonist test (Ah-immunoassay, 0.5 nM TCDD); conditions: for Test as antagonist, Milli O.D at 405: 0.5 nM TCDD; for binding or interaction with the Ah receptor (words): with and without 0.5 nM TCDD
T1 sequence (Q6J287 1-846): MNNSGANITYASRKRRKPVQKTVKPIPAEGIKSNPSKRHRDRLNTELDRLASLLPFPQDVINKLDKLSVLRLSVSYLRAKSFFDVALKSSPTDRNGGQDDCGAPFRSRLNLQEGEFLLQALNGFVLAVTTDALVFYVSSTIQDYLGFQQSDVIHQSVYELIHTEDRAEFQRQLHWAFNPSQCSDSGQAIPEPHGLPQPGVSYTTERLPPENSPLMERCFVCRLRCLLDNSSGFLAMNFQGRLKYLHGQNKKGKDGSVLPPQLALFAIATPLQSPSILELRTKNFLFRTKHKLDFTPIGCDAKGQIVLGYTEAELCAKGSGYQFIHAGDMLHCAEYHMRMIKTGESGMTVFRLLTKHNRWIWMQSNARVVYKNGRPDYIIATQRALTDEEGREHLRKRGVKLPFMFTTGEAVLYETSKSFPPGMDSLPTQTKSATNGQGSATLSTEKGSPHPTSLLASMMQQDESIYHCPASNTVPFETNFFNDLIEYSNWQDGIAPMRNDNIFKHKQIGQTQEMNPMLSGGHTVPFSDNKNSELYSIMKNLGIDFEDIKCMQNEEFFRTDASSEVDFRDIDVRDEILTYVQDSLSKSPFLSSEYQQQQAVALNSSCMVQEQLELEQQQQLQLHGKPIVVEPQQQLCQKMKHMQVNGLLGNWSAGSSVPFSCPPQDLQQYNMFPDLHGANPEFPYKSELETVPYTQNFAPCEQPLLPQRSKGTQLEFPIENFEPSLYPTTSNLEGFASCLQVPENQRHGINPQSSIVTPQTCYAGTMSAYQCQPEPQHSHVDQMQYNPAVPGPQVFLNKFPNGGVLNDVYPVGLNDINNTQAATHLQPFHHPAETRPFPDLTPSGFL
Protocol: Cytosol was prepared as described in methods and treated with TCDD, DMSO or TCM extract to make 1) 0.5 nM TCDD, 2) 0.1% DMSO, or 3) 500 μg/mL TCM extract, respectively. The treated cytosol was serially diluted in a neutravidin-coated ELISA plate (Pierce, Rockford, Ill.). […] To treat for Ah receptor agonist activity, extracts were diluted in 0.5 nM TCDD treated cytosol to 250, 125, and 62.5 μg/mL of TCM extracts.
Ten mL aliquots of cytosol were thawed and pooled, generally 20 mL per ELISA plate. For each 20 mL of cytosol, 10 μL of thawed DRE stock and 1 mL HEDG in 4M NaCl were added.
0.5 nM TCDD Diluent for extracts (detection of antagonists): The cytosol is treated with 1 μl of 1 μM TCDD per 2 mL cytosol (0.5 nm).
500 μg/mL extracts (detection of antagonists): 1 μL of test extract (500 mg/mL in DMSO) in 1 mL 0.5 nM TCDD-treated cytosol (500 μg/mL final concentration of extract in cytosol).
Serial dilution's of the extracts and/or TCDD treated cytosol into DMSO-treated cytosol are done as required by the experiment and are described in the examples.
The ELISA plate containing the treated cytosol is incubated with gentle rocking for 2 hours at 30° C. to allow the transformation of Ah receptor, binding of Ah receptor with ARNT, and binding of the Ah receptor/ARNT complex to the biotinylated DRE, and binding of the biotinylated DRE to the neutravidin bound to the ELISA plate.
After 2 hours the plate is washed 3 times with 400 μL TBS plus 0.02% Tween 20 per well per wash and 200 μL of the working dilution of anti-ARNT added to all wells. The plate is again incubated with gentle rocking at 30° C. for 1 hour. After 1 hour the plate is washed as before and a working dilution (1:4000) of anti-rabbit/alkaline phosphatase conjugate is added to all wells. The plate is incubated for a further 1 hour at 30° C. with gentle rocking and then washed as before. PNPP stock is added to each well (200 μL) and the plate is incubated for 1 hour at 30° C., at which time it is read at 405 nm in an ELISA plate reader and the milli O.D.'s of the wells are recorded.
TCM extracts were tested for their ability to inhibit the transformation of the Ah receptor.

[3] = tested on: HIV; viruses; tumors; liver; conditions: cited from earlier work
Ah receptor [4] = target: T1, Ah receptor; test: Ah receptor transformation, agonist test (Ah-immunoassay, absence of TCDD); format: biochemical, Guinea pig; conditions: absence of TCDD
Protocol: Cytosol was prepared as described above.
Diluent for TCDD dose response, diluent for extracts (detection of agonists), and negative control: The cytosol is treated with 1 μL DMSO per 1 mL cytosol (-).
1 nM TCDD treated, positive control. […] DMSO diluent for detection of agonists: the cytosol is treated with μL DMSO per 1 mL cytosol. (1 nm final concentration of TCDD).

SMILES: Clc1cc2c(cc1Cl)Oc1c(Cl)c(Cl)c(Cl)c(Cl)c1O2 [1,2,3,4,7,8-HCDD]
- Estimated IC50 (Syncitia Quantification), inhibition of HIV-induced cytopathicity [1]: No Inhibition Observed

SMILES: Cc1cc(Cl)cc2c1oc1cc(Cl)cc(Br)c12 [1-bromo,6-methyl,3,8-dichlorodibenzofuran]
- inhibition of syncytia formation / cytopathicity [1]: most effective compound and strongest Ah receptor antagonist
- Estimated IC50 (Syncitia Quantification), inhibition of HIV-induced cytopathicity [1]: 100 nM

SMILES: Clc1cc2oc3cc(Cl)c(Cl)cc3c2cc1Cl [2,3,7,8-TCDF]
- Estimated IC50 (Syncitia Quantification), inhibition of HIV-induced cytopathicity [1]: 80 nM

SMILES: Clc1ccc(-c2cc(Cl)c(Cl)c(Cl)c2)cc1Cl [3,3',4,4',5-PCB, 3,3',4,4',5-pentachlorobiphenyl]
- inhibition of syncytia formation / cytopathicity [1]: correspondingly weaker activity
- Estimated IC50 (Syncitia Quantification), inhibition of HIV-induced cytopathicity [1]: 100 nM

SMILES: Clc1ccc(-c2ccc(Cl)c(Cl)c2)cc1Cl [3,3',4,4'-TCB, 3,3',4,4'-tetrachlorobiphenyl]
- inhibition of syncytia formation / cytopathicity [1]: correspondingly weaker activity
- Estimated IC50 (Syncitia Quantification), inhibition of HIV-induced cytopathicity [1]: 35 nM

SMILES: CCCCc1cc(Cl)cc2c1oc1cc(Cl)cc(Cl)c12 [6-butyl,1,3,8-trichlorodibenzofuran]
- Estimated IC50 (Syncitia Quantification), inhibition of HIV-induced cytopathicity [1]: 1500 nM

SMILES: Clc1cc(Cl)c2c(c1)oc1c(C3CCCCC3)cc(Cl)cc12 [6-cyclohexyl,1,3,8-trichlorodibenzofuran]
- Estimated IC50 (Syncitia Quantification), inhibition of HIV-induced cytopathicity [1]: 500 nM

SMILES: CCc1cc(Cl)cc2c1oc1cc(Cl)cc(Cl)c12 [6-ethyl,1,3,8-trichlorodibenzofuran]
- Estimated IC50 (Syncitia Quantification), inhibition of HIV-induced cytopathicity [1]: 1000 nM

SMILES: CC(C)c1cc(Cl)cc2c1oc1cc(Cl)cc(Cl)c12 [6-isopropyl,1,3,8-trichlorodibenzofuran]
- inhibition of syncytia formation / cytopathicity [1]: slightly less antagonistic activity
- Estimated IC50 (Syncitia Quantification), inhibition of HIV-induced cytopathicity [1]: 100 nM

SMILES: Cc1cc(Cl)cc2c1oc1cc(Cl)cc(Cl)c12 [6-methyl,1,3,8-trichlorodibenzofuran]
- Estimated IC50 (Syncitia Quantification), inhibition of HIV-induced cytopathicity [1]: 200 nM

SMILES: O=[N+]([O-])c1cc(Cl)cc2c1oc1cc(Cl)cc(Cl)c12 [6-nitro 1,3,8-trichlorodibenzofuran]
- inhibition of syncytia formation / cytopathicity [1]: slightly less antagonistic activity
- Estimated IC50 (Syncitia Quantification), inhibition of HIV-induced cytopathicity [1]: 500 nM

SMILES: CCCc1cc(Cl)cc2c1oc1cc(Cl)cc(Cl)c12 [6-propyl,1,3,8-trichlorodibenzofuran]
- Estimated IC50 (Syncitia Quantification), inhibition of HIV-induced cytopathicity [1]: 500 nM

SMILES: CC(C)(C)c1cc(Cl)cc2c1oc1cc(Cl)cc(Cl)c12 [6-t-butyl,1,3,8-trichlorodibenzofuran]
- Estimated IC50 (Syncitia Quantification), inhibition of HIV-induced cytopathicity [1]: 1500 nM

- Test as antagonist, Milli O.D at 405 (Ah receptor [2]; Table 11, 0.313 μg/mL): 1457 Milli O.D
- Test as antagonist, Milli O.D at 405 (Ah receptor [2]; Table 11, 0.625 μg/mL): 1402 Milli O.D
- Test as antagonist, Milli O.D at 405 (Ah receptor [2]; Table 11, 1.25 μg/mL): 1437 Milli O.D
- Test as antagonist, Milli O.D at 405 (Ah receptor [2]; Table 11, 2.5 μg/mL): 1416 Milli O.D
- Test as antagonist, Milli O.D at 405 (Ah receptor [2]; Table 11, 5 μg/mL): 1421 Milli O.D
- Test as antagonist, Milli O.D at 405 (Ah receptor [2]; Table 11, 10 μg/mL): 1164 Milli O.D
- Test as agonist, Milli O.D at 405 (Ah receptor [4]; Table 11, 0.313 μg/mL): 49.5 Milli O.D
- Test as agonist, Milli O.D at 405 (Ah receptor [4]; Table 11, 0.625 μg/mL): 43 Milli O.D
- Test as agonist, Milli O.D at 405 (Ah receptor [4]; Table 11, 1.25 μg/mL): 59.5 Milli O.D
- Test as agonist, Milli O.D at 405 (Ah receptor [4]; Table 11, 2.5 μg/mL): 54.5 Milli O.D
- Test as agonist, Milli O.D at 405 (Ah receptor [4]; Table 11, 5 μg/mL): 55 Milli O.D
- Test as agonist, Milli O.D at 405 (Ah receptor [4]; Table 11, 10 μg/mL): 47 Milli O.D
SMILES: C=C1CC[C@@H]2[C@](C)(CO)[C@H](O)CC[C@@]2(C)[C@@H]1C/C=C1/C(=O)OC[C@H]1O [Andrographolide, andrographolide]
- binding or interaction with the Ah receptor (words) (Ah receptor [2]): does not interact or inhibit the Ah receptor
- binding or interaction with the Ah receptor (words) (Ah receptor [2]; listed as andrographolide): does not bind the Ah receptor; also recorded: non-Ah receptor binding
- pharmacological activity (words) [3]: anti-tumor activity
- pharmacological activity (words) ([3]; listed as andrographolide): anti-HIV effects; also recorded: anti-viral, anti-neoplastic and hepatoprotective properties

SMILES: Clc1ccc2c(c1)Oc1ccccc1O2 [Extract 2-MCDD, 2-Monochlorodibenzo-p-dioxin]
- inhibition of syncytia formation / cytopathicity [1]: incapable of blocking the cytopathic effect
- Estimated IC50 (Syncitia Quantification), inhibition of HIV-induced cytopathicity [1]: No Inhibition Observed

- Test as antagonist, Milli O.D at 405 (Ah receptor [2]; Table 11, 0.313 μg/mL): 1493 Milli O.D
- Test as antagonist, Milli O.D at 405 (Ah receptor [2]; Table 11, 0.625 μg/mL): 1444 Milli O.D
- Test as antagonist, Milli O.D at 405 (Ah receptor [2]; Table 11, 1.25 μg/mL): 1438 Milli O.D
- Test as antagonist, Milli O.D at 405 (Ah receptor [2]; Table 11, 2.5 μg/mL): 1462 Milli O.D
- Test as antagonist, Milli O.D at 405 (Ah receptor [2]; Table 11, 5 μg/mL): 1423 Milli O.D
- Test as antagonist, Milli O.D at 405 (Ah receptor [2]; Table 11, 10 μg/mL): 1143 Milli O.D
- binding or interaction with the Ah receptor (words) (Ah receptor [2]): non-Ah receptor binding
- Test as agonist, Milli O.D at 405 (Ah receptor [4]; Table 11, 0.313 μg/mL): 48 Milli O.D
- Test as agonist, Milli O.D at 405 (Ah receptor [4]; Table 11, 0.625 μg/mL): 19.5 Milli O.D
- Test as agonist, Milli O.D at 405 (Ah receptor [4]; Table 11, 1.25 μg/mL): 49 Milli O.D
- Test as agonist, Milli O.D at 405 (Ah receptor [4]; Table 11, 2.5 μg/mL): 49.5 Milli O.D
- Test as agonist, Milli O.D at 405 (Ah receptor [4]; Table 11, 5 μg/mL): 49.5 Milli O.D
- Test as agonist, Milli O.D at 405 (Ah receptor [4]; Table 11, 10 μg/mL): 50 Milli O.D
SMILES: CC1(C)CC[C@]2(C(=O)O)CC[C@]3(C)C(=CC[C@@H]4[C@@]5(C)CC[C@H](O)C(C)(C)[C@@H]5CC[C@]43C)[C@@H]2C1 [Oleanolic Acid]
